Reference: ChEMBL document CHEMBL4507291 (2021)

Legend:
[1] = target: Serine/threonine-protein kinase B-raf (Homo sapiens) (UniProt P15056)
[2] = target: T1, Serine/threonine-protein kinase BRSK1 (Homo sapiens) (UniProt Q8TDC3)
T1 sequence (whole entry): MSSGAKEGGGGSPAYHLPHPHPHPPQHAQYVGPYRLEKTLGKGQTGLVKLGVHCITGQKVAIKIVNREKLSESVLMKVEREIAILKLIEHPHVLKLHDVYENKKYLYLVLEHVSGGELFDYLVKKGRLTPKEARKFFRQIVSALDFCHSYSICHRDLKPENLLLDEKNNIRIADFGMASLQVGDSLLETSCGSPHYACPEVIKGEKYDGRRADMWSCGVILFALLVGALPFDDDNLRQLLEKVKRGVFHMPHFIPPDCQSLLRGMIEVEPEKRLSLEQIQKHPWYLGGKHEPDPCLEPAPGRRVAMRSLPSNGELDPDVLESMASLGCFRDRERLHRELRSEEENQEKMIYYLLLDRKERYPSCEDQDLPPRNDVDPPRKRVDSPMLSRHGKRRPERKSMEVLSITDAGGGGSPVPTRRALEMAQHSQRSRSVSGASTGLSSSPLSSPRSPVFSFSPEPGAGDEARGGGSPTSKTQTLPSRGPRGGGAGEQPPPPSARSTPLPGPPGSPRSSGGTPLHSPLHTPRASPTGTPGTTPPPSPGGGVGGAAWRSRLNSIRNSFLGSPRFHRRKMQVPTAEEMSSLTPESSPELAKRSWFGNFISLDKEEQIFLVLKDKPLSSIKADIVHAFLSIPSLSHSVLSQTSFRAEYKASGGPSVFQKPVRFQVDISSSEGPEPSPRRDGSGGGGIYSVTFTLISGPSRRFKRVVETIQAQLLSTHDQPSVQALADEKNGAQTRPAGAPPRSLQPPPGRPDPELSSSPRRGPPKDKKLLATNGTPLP

[3] = target: Calcium/calmodulin-dependent protein kinase type 1D (Homo sapiens) (UniProt Q8IU85)
[4] = target: Casein kinase I isoform alpha (Homo sapiens) (UniProt P48729)
[5] = tested on: Epidermal growth factor receptor (Homo sapiens), P00533 [UNDEFINED MUTATION]
[6] = target: Receptor tyrosine-protein kinase erbB-3 (Homo sapiens) (UniProt P21860)
[7] = tested on: Receptor-type tyrosine-protein kinase FLT3 (Homo sapiens), P36888 [D835V]
[8] = target: Mitogen-activated protein kinase kinase kinase 15 (Homo sapiens) (UniProt Q6ZN16)
[9] = target: T2, Mitogen-activated protein kinase kinase kinase kinase 2 (Homo sapiens) (UniProt Q12851)
T2 sequence (whole entry): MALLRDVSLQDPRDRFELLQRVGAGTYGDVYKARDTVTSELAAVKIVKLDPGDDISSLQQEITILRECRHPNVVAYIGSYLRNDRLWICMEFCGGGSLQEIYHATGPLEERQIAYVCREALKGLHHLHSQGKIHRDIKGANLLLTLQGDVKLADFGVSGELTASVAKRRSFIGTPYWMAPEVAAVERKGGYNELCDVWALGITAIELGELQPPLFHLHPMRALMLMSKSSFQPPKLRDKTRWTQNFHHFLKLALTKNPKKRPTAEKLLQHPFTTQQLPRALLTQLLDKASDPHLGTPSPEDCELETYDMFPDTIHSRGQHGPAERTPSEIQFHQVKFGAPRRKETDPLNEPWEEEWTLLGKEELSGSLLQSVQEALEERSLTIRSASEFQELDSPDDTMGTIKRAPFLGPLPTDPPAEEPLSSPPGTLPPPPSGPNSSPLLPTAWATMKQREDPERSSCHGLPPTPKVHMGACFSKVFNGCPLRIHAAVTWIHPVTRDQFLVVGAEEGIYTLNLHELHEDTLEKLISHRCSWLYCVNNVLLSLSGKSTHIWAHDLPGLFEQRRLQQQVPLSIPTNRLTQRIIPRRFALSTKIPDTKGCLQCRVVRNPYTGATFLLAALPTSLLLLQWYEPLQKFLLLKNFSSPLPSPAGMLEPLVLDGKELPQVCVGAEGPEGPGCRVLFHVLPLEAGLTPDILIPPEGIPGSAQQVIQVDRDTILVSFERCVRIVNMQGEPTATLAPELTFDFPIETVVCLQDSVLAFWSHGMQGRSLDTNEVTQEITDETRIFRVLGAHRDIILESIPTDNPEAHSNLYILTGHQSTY

[10] = target: Dual specificity mitogen-activated protein kinase kinase 5 (Homo sapiens) (UniProt Q13163)
[11] = target: T3, Mitogen-activated protein kinase 13 (Homo sapiens) (UniProt O15264)
T3 sequence (whole entry): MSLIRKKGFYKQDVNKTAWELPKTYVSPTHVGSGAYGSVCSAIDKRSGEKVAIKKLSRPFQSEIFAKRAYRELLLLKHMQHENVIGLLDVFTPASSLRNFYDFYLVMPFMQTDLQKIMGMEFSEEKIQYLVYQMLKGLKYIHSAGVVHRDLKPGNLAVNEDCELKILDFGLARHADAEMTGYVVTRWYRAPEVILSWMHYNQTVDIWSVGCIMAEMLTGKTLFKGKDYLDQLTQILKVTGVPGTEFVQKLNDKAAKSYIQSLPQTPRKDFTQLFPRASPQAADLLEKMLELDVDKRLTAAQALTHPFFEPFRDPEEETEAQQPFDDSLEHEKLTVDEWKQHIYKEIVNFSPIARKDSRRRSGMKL

[12] = target: Serine/threonine-protein kinase PAK 2 (Homo sapiens) (UniProt Q13177)
[13] = target: Serine/threonine-protein kinase PAK 3 (Homo sapiens) (UniProt O75914)
[14] = target: Phosphatidylinositol 4,5-bisphosphate 3-kinase catalytic subunit gamma isoform (Homo sapiens) (UniProt P48736)
[15] = target: Delta-type opioid receptor (Homo sapiens) (UniProt P41143); settings: Compound concentration 10.0 uM
[16] = target: Histamine H1 receptor (Homo sapiens) (UniProt P35367); settings: Compound concentration 10.0 uM
[17] = Compound concentration 1000.0 nM
[18] = Compound concentration 100.0 nM

Epidermal growth factor receptor (Homo sapiens), P00533 [UNDEFINED MUTATION], sequence (P00533 whole entry, looked up, change not shown): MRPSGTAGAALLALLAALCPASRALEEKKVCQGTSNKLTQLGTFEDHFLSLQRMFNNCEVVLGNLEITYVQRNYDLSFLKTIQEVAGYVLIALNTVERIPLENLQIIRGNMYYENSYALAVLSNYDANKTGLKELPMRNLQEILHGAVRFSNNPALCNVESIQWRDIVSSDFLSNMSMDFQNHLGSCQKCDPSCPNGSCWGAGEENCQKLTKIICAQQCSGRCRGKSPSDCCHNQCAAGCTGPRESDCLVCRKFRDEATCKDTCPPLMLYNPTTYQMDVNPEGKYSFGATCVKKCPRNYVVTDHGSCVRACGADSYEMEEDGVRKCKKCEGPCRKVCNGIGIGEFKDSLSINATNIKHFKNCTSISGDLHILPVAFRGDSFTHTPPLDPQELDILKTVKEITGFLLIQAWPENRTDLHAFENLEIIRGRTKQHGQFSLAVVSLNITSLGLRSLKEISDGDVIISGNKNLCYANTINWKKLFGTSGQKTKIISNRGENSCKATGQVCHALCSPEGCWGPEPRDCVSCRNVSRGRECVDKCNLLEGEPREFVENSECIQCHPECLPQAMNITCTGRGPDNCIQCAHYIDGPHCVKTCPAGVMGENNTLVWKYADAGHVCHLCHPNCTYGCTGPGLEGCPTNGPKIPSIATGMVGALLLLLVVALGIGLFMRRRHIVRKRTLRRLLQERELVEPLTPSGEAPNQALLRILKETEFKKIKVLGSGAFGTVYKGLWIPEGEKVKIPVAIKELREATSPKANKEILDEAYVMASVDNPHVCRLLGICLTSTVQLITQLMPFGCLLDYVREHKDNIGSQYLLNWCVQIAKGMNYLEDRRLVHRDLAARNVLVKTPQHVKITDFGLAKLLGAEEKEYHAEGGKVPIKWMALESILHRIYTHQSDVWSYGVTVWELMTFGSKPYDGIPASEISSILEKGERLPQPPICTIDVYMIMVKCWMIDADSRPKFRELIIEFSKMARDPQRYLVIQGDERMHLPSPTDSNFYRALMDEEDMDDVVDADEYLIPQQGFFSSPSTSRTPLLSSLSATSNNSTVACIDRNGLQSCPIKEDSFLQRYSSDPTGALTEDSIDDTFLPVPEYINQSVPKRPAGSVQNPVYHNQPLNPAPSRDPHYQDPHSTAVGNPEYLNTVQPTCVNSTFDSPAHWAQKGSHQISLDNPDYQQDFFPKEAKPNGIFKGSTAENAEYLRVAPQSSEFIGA
Mitogen-activated protein kinase kinase kinase 15 (Homo sapiens), sequence (Q6ZN16 whole entry): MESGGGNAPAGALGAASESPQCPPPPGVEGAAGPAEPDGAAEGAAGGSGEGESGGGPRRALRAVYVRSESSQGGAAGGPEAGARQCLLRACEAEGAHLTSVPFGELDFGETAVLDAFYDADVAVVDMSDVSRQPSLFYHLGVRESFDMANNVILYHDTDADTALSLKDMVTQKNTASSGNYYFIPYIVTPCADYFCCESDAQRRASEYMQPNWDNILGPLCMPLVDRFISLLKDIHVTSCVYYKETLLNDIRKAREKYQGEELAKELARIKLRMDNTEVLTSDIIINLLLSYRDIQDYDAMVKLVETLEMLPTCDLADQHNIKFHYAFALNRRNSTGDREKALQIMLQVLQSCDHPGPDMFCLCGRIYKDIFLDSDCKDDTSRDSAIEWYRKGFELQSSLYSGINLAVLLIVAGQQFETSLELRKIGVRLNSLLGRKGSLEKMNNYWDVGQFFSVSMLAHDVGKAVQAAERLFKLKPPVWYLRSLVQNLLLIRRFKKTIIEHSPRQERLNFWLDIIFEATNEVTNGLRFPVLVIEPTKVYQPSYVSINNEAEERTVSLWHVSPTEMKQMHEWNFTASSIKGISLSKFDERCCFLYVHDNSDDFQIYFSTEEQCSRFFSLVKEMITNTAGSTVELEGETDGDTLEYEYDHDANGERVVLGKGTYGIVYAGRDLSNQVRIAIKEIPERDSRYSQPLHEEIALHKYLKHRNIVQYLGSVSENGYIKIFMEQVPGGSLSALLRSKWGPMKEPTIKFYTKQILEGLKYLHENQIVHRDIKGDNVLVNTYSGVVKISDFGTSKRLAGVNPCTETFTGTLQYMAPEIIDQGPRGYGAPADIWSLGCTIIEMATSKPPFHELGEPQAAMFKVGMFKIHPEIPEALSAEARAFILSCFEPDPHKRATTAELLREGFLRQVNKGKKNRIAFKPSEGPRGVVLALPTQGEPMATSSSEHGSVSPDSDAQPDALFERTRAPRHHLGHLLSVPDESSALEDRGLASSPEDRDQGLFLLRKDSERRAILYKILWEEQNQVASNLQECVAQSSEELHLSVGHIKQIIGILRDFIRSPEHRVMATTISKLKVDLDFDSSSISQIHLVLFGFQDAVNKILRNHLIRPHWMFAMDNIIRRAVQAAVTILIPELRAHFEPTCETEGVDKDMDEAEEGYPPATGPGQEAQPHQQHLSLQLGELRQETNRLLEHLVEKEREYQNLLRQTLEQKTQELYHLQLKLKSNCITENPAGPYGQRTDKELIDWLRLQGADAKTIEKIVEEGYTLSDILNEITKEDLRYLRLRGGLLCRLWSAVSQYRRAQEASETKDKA
Serine/threonine-protein kinase B-raf (Homo sapiens), sequence (P15056 whole entry): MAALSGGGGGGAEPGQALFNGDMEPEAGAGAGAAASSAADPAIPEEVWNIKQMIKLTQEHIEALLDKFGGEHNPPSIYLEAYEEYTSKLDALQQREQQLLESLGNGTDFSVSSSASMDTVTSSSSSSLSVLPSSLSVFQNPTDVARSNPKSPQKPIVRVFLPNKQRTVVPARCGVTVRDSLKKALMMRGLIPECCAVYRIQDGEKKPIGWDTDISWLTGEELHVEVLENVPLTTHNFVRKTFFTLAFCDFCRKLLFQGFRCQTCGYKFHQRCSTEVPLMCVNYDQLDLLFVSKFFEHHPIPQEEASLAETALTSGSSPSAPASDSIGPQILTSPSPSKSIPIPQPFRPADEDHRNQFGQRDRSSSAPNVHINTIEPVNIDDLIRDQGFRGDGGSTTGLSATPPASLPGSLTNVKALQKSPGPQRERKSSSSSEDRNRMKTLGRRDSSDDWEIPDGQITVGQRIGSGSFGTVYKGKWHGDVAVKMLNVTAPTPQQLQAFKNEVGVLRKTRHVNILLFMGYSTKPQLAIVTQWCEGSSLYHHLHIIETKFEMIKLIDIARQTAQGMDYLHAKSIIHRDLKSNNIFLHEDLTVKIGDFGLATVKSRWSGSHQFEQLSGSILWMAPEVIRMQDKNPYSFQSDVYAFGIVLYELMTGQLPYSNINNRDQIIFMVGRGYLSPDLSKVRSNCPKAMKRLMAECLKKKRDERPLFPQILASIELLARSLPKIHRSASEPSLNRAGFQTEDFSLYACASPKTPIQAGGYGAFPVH
Serine/threonine-protein kinase PAK 3 (Homo sapiens), sequence (O75914 whole entry, looked up, canonical isoform): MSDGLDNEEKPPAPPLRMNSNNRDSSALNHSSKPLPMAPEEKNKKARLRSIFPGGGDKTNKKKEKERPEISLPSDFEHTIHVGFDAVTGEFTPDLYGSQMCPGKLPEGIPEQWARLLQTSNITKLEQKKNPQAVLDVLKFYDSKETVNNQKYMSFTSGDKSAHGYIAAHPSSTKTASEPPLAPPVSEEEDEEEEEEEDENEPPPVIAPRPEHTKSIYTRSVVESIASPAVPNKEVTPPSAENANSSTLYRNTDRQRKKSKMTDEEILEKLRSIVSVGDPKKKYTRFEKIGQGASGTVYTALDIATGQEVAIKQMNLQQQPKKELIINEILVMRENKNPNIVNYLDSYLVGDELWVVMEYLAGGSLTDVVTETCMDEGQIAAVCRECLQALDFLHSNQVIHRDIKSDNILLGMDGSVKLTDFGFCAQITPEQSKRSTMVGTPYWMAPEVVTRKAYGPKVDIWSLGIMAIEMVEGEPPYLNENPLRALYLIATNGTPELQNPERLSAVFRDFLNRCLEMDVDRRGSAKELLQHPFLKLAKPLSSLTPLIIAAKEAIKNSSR
Histamine H1 receptor (Homo sapiens), sequence (P35367 whole entry): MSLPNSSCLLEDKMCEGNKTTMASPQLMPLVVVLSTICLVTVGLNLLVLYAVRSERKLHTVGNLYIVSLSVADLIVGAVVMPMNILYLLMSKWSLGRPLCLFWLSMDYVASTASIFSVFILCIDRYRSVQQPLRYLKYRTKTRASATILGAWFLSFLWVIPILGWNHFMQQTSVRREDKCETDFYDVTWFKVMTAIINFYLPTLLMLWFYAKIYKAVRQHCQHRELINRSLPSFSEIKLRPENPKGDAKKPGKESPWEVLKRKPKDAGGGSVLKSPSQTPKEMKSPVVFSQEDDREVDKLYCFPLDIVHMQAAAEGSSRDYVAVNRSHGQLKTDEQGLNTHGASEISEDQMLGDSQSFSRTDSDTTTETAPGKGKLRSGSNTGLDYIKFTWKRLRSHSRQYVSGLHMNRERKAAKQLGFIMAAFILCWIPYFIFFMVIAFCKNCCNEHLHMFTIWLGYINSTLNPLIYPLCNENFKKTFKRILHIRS
Casein kinase I isoform alpha (Homo sapiens), sequence (P48729 2-337 limits assumed): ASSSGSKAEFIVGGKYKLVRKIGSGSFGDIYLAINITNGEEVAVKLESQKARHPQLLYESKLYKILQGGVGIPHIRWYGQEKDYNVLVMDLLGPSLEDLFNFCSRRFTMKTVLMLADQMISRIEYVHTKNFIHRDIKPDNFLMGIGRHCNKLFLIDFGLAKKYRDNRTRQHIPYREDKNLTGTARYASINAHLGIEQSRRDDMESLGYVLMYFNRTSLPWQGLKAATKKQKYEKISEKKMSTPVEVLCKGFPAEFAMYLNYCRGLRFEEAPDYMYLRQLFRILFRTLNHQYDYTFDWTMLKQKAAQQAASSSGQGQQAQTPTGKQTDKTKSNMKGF
Delta-type opioid receptor (Homo sapiens), sequence (P41143 whole entry): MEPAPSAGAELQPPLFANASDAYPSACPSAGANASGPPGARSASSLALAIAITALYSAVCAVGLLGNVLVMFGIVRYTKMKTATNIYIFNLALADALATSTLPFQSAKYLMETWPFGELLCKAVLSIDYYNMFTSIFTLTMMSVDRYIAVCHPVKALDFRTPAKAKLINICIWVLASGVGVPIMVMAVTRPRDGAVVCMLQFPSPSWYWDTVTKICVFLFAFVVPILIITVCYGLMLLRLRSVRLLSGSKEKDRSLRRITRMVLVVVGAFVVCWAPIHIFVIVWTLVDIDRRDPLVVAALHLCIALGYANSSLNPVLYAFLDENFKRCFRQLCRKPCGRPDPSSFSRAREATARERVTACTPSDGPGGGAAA

C[C@@H]1CN(c2cc(-c3nn(C)c4ccc(OC5(C)CC5)cc34)ncn2)C[C@H](C)O1 [MLi-2-NC]
inactive: residual activity [1, 17] 68% | residual activity [2, 17] 97% | residual activity [3, 17] 100% | residual activity [4, 17] 100% | residual activity [5, 17] 100% | residual activity [6, 17] 57% | residual activity [7, 17] 86% | residual activity [8, 17] 80% | residual activity [9, 17] 81% | residual activity [10, 17] 93% | residual activity [11, 17] 100% | residual activity [12, 17] 90% | residual activity [13, 17] 100% | residual activity [14, 17] 100% | inhibition [15] 23.3% | inhibition [16] 11.9%

C[C@@H]1CN(c2cc(-c3n[nH]c4ccc(OC5(C)CC5)cc34)ncn2)C[C@H](C)O1 [MLi-2]
inactive: residual activity [1, 18] 91% | residual activity [2, 18] 96% | residual activity [3, 18] 100% | residual activity [4, 18] 73% | residual activity [5, 18] 51% | residual activity [6, 18] 100% | residual activity [7, 18] 73% | residual activity [8, 18] 67% | residual activity [9, 18] 76% | residual activity [10, 18] 90% | residual activity [11, 18] 96% | residual activity [12, 18] 95% | residual activity [13, 18] 83% | residual activity [14, 18] 72% | inhibition [15] 6.66% | inhibition [16] -6.46%
